IC50 and inhibition data for eight compounds are collected here from patent US9346798B2, “Dihydrobenzoxazine and tetrahydroquinoxaline sodium channel inhibitors” (AMGEN INC., priority 2012, dated 2016).

One may read the pIC50 as the IC50 on a negative log10 scale, so that one unit is a factor of ten. A higher pIC50 goes with a low IC50. In general, inhibition refers to how much of the control response was suppressed.

pIC50: −log10 of the molar value.

What all share (format): cell-based
Series [1] has as its target T1, Nav 1.7 (Homo sapiens (Human), UniProt Q15858). The experiment in a line: Nav 1.7 in vitro assay, IonWorks Quattro (IWQ) population patch-clamp. The note with it: HEK 293 cells stably transfected with Nav 1.7; 26th pulse to -20 mV. On the technique in general: Patch clamp records ionic current or voltage across a cell membrane.
For series [2], the target named is T1, Nav 1.7. The experiment in a line: Nav 1.7 in vitro PX assay, PatchXpress whole cell voltage clamp. The note with it: HEK 293 cells stably transfected with human Nav1.7; for pIC50: partially inactivated state (20 to 50% inactivation); for inhibition at 4.9 µM: HEK293, values marked *, read-out: Nav 1.7 PX percent inhibition at 4.9 μM. The method in brief:
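Partially inactivated channels (20–50% inactivation at holding potential) were probed on automated patch clamp in stably transfected HEK293 cells, stepping to −10 mV for 20 msec every 10 s (0.1 Hz).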

The next series has as its target Nav 1.5 (Homo sapiens (Human), UniProt Q14524). The experiment in a line: Nav 1.5 in vitro assay, IonWorks Quattro (IWQ) population patch-clamp. The note with it: HEK 293 cells stably transfected with Nav 1.5; 26th pulse to -20 mV.

T1 sequence (Q15858 whole entry): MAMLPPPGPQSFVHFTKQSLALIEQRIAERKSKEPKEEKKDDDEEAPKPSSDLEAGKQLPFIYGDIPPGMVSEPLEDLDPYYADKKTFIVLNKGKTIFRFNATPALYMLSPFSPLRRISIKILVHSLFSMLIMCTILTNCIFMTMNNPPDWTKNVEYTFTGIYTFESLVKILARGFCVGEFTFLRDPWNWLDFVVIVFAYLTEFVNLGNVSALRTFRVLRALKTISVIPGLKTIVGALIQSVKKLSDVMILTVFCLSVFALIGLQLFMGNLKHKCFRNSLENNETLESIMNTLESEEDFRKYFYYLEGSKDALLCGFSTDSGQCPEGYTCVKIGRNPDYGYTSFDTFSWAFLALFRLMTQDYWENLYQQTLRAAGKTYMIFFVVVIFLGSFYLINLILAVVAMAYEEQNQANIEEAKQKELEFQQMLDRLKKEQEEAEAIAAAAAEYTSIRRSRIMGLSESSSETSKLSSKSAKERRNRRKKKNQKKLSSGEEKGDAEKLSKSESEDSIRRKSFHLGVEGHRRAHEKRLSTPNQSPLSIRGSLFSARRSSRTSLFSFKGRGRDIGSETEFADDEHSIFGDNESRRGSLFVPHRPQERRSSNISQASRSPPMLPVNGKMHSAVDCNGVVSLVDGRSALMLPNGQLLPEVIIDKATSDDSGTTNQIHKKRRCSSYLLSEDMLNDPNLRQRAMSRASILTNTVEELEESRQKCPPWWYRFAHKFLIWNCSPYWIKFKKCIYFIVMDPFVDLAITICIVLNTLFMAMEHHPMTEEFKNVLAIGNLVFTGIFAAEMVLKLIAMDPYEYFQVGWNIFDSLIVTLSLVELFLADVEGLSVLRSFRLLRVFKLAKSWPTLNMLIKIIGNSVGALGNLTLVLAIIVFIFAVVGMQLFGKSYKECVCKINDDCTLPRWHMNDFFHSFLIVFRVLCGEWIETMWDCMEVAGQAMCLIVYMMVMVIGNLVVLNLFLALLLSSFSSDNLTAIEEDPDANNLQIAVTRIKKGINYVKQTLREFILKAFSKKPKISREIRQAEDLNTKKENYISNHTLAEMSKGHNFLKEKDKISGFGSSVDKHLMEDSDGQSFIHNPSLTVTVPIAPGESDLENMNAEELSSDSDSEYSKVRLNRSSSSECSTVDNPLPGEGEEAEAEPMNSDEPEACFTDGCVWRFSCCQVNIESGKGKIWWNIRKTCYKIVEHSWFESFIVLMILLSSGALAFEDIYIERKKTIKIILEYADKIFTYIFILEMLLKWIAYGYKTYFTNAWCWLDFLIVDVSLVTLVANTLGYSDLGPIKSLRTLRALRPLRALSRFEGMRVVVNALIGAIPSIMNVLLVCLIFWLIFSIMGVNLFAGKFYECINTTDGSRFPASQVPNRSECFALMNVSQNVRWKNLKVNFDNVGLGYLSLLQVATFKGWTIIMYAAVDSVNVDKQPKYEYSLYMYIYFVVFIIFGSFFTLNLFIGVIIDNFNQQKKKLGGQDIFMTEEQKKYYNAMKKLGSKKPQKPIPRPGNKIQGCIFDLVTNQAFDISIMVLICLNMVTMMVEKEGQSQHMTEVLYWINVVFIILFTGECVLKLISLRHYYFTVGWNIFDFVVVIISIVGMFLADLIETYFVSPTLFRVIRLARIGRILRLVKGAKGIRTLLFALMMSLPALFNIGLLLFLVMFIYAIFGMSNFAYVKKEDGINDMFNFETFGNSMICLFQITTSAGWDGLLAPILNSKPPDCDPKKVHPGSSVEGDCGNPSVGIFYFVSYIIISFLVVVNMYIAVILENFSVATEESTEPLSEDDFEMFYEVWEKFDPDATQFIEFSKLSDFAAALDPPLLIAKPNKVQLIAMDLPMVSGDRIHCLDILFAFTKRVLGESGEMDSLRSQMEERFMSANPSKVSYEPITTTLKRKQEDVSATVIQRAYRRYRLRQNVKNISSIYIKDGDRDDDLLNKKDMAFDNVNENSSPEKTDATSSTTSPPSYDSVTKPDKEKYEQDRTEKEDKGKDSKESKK
Nav 1.5, sequence (Q14524 whole entry): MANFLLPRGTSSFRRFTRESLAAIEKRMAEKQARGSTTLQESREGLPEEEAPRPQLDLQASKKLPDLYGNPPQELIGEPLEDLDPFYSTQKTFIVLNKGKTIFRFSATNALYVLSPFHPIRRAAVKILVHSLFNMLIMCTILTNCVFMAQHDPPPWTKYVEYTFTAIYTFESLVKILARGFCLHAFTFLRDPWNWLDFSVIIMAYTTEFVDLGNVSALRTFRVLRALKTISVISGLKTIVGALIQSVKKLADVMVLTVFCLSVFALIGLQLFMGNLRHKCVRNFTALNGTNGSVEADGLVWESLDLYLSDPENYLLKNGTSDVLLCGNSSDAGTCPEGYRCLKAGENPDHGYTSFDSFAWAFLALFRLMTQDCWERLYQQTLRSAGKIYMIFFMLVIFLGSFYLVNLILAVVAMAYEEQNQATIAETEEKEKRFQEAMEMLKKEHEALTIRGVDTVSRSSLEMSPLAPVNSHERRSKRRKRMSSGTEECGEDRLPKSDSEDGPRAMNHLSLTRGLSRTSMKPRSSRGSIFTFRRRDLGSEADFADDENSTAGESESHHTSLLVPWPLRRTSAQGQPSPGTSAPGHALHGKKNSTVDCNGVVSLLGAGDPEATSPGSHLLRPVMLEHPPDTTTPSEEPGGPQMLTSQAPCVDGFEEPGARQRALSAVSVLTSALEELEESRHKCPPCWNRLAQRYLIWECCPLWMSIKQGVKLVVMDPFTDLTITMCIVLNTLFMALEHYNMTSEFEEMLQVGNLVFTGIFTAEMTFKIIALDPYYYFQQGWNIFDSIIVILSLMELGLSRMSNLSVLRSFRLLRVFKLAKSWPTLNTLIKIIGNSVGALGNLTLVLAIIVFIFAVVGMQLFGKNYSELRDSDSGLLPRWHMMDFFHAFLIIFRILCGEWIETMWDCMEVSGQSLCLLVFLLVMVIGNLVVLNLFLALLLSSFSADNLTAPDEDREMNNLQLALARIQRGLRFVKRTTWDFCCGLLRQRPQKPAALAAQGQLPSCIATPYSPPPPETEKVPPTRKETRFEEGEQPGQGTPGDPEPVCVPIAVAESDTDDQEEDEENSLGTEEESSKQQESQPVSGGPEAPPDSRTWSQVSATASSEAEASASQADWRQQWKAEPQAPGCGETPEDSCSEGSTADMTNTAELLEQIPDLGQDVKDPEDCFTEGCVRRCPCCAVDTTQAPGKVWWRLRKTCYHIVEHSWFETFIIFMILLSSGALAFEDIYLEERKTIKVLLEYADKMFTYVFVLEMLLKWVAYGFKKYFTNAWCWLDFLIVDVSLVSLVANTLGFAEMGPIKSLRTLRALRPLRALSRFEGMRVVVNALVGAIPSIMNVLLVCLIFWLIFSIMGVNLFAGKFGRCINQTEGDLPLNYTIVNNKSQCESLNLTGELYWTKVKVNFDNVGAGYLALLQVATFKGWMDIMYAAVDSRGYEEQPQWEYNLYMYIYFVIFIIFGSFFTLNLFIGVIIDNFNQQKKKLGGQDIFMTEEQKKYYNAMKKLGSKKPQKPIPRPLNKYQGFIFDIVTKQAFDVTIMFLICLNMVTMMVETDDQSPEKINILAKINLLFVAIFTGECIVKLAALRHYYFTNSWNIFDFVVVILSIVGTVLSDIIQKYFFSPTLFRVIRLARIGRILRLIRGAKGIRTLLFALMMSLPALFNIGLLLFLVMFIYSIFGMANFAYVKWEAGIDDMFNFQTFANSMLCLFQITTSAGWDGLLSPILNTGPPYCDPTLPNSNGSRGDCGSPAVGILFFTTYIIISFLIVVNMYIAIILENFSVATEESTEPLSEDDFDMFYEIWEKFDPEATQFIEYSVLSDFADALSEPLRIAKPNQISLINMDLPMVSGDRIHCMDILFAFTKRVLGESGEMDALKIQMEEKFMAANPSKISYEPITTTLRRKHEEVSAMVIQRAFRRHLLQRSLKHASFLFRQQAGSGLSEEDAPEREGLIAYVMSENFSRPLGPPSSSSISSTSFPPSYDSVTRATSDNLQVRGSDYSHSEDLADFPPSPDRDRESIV

Consider `N#Cc1cc(C(F)(F)F)ccc1N1CCOc2c1ccc(S(=O)(=O)Nc1nccs1)c2F` [Example 216, 4-(2-Cyano-4-(Trifluoromethyl)Phenyl)-8-Fluoro-N-(Thiazol-2-Yl)-3,4-Dihydro-2H-Benzo[B][1,4]Oxazine-7-Sulfonamide], for which the pIC50 is 7.47 against Nav 1.7 [1], 6.29 against Nav 1.7 [2] and 5.24 on Nav 1.5.
As to `COc1cc(C#N)ccc1N1CCOc2cc(S(=O)(=O)Nc3nccs3)c(F)cc21` [Example 217, 4-(4-Cyano-2-Methoxyphenyl)-6-Fluoro-N-(Thiazol-2-Yl)-3,4-Dihydro-2H-Benzo[B][1,4]Oxazine-7-Sulfonamide], the values for the pIC50 at Nav 1.7 [1], on Nav 1.7 [2] and at Nav 1.5 were 8.10, 6.68 and 5.88, respectively.
Take `N#Cc1cc(C(F)(F)F)ccc1N1CCOc2cc(S(=O)(=O)Nc3nccs3)cc(F)c21` [Example 218, 4-(2-Cyano-4-(Trifluoromethyl)Phenyl)-5-Fluoro-N-(Thiazol-2-Yl)-3,4-Dihydro-2H-Benzo[B][1,4]Oxazine-7-Sulfonamide]: the figures for the pIC50 at Nav 1.7 [1], against Nav 1.7 [2] and against Nav 1.5 were 6.71, 5.70 and 6.41, respectively.
`COc1cc(C#N)ccc1CN1CCOc2cc(S(=O)(=O)Nc3nccs3)ccc21` [Example 219, 4-(4-Cyano-2-Methoxybenzyl)-N-(Thiazol-2-Yl)-3,4-Dihydro-2H-Benzo[B][1,4]Oxazine-7-Sulfonamide]: the pIC50 against Nav 1.7 [1] is 5.28; at Nav 1.5, below 5.00. On Nav 1.7 [2], the inhibition at 4.9 µM was determined as 26.2%.
In the case of `O=S(=O)(Nc1nccs1)c1ccc2c(c1)OCCN2Cc1ccccc1` [Example 220, 4-Benzyl-N-(Thiazol-2-Yl)-3,4-Dihydro-2H-Benzo[B][1,4]Oxazine-7-Sulfonamide], the pIC50 against Nav 1.7 [1] was 6.06; against Nav 1.7 [2], 4.76; on Nav 1.5, below 5.00.
As for `Cc1onc(-c2ccccc2)c1CN1CCOc2cc(S(=O)(=O)Nc3nccs3)ccc21` [Example 221, 4-((5-Methyl-3-Phenylisoxazol-4-Yl)Methyl)-N-(Thiazol-2-Yl)-3,4-Dihydro-2H-Benzo[B][1,4]Oxazine-7-Sulfonamide], the pIC50 against Nav 1.7 [1] was 6.25; against Nav 1.7 [2] it was 5.52; at Nav 1.5, below 5.00.
As for `O=S(=O)(Nc1nccs1)c1ccc2c(c1)OCCN2Cc1c[nH]c2cccnc12` [Example 222, 4-((1H-Pyrrolo[3,2-B]Pyridin-3-Yl)Methyl)-N-(Thiazol-2-Yl)-3,4-Dihydro-2H-Benzo[B][1,4]Oxazine-7-Sulfonamide], the pIC50 is 5.46 against Nav 1.7 [1] and below 5.00 at Nav 1.5. Further, the inhibition at 4.9 µM on Nav 1.7 [2] worked out at 33.8%.
With `Cc1cc(C#N)ccc1N1CCOc2cc(S(=O)(=O)Nc3nccs3)ccc21` [Example 226, 4-(4-Cyano-2-Methylphenyl)-N-(Thiazol-2-Yl)-3,4-Dihydro-2H-Benzo[B][1,4]Oxazine-7-Sulfonamide], the pIC50 on Nav 1.7 [1] was 7.44; against Nav 1.7 [2] it was 6.13; against Nav 1.5 it was below 5.00.
